# Data taken from patent publication US20130202629A1, “USES OF PHOSPHOLIPID CONJUGATES OF SYNTHETIC TLR7 AGONISTS” (The Regents of the University of California, priority 2010, published 2013).
# Values joined by “and” are separate entries in the source; they are usually repeats but may differ in a detail not shown here. Equal values may be shown once. “Also recorded” adds a separate entry of the source.
# Columns and labels:
# Solubility = assay type: physicochemical; conditions: aqueous solution / suitable solvents for testing
# C57BL/6 mice = assay: In vivo kinetics of serum pro-inflammatory cytokine induction after intravenous injection; parameters: species or system mouse; conditions: i.v., 200 nmol per animal
# Protocol: The mice were intravenously injected with TLR7 agonists and their conjugates (40 nmol compound (4a) or 200 nmol SM and compounds (6), (8), or (9) per mouse). Blood samples were collected 2, 4, 6, 24 or 48 hours after injections. Sera were separated and kept at −20° C. until use. The levels of cytokines (e.g. IL-6 and TNF-α in the sera were measured by Luminex bead microassay, and the results presented in FIGS. 4A-B. Data are mean±SEM of five mice and are representative of two independent experiments. The minimum detection levels of IL-6 and TNF-α are 5 pg/mL and 10 pg/mL, respectively.
# Cytokine induction by compounds (4a), (6), and (9), were sustained for up to 6 hours.
# TLR7 [1] = biological target: T1, TLR7 (Homo sapiens, UniProt Q9NYK1); assay: Cytokine induction (IL-6, IFNalpha1; Luminex) in human PBMC; assay type: cell-based; conditions: 18 hours, IL-6 (FIG. 3A)
# T1 sequence (Q9NYK1 27-1049): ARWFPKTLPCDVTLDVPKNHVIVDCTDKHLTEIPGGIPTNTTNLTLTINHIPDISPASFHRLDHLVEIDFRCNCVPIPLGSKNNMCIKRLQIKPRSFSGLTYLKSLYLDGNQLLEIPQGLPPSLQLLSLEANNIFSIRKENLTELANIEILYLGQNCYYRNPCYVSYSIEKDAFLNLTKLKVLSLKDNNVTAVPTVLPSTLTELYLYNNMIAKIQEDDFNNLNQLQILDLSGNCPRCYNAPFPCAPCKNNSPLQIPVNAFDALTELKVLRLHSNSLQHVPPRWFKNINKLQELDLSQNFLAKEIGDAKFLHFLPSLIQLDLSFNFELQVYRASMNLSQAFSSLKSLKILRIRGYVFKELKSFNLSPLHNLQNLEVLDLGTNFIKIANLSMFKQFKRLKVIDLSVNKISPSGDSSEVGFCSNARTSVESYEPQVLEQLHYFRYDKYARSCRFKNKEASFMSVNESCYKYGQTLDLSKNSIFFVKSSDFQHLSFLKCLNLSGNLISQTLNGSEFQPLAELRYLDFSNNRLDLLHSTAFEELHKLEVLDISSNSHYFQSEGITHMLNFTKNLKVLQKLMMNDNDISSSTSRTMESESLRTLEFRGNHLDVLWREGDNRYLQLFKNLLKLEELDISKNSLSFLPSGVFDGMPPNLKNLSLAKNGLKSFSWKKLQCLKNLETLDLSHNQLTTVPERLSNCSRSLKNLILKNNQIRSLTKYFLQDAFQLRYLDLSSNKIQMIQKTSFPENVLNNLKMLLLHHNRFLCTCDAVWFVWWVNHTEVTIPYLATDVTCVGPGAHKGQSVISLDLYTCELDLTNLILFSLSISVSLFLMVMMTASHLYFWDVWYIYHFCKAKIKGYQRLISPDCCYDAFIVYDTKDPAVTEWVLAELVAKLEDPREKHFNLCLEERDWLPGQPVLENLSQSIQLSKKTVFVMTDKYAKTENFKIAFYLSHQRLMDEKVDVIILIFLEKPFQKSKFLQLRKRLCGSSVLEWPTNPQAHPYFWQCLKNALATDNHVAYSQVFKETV
# TLR7 [2] = assay: IL-12 and IL-6 induction in BMDM from wild type and TLR7 deficient mice; assay type: cell-based, mouse; conditions: BMDM from TLR7 deficient (TLR7-KO) mice
# TLR7 [3] = biological target: T2, TLR7 (Mus musculus, UniProt P58681); assay: In vitro cytokine induction (TNF-alpha, IL-6, IL-12; ELISA) in murine macrophages: RAW264.7 cells and BMDM; assay type: cell-based; conditions: RAW264.7 and BMDM, 18 hours; b281 also in vivo
# T2 construct: BMDM were prepared from C57BL/6 and TLR7 deficient mice; endogenous in cells; host or cells: RAW264.7 (ATCC); bone marrow derived macrophages from C57BL/6 mice
# T2 sequence (P58681 27-1050): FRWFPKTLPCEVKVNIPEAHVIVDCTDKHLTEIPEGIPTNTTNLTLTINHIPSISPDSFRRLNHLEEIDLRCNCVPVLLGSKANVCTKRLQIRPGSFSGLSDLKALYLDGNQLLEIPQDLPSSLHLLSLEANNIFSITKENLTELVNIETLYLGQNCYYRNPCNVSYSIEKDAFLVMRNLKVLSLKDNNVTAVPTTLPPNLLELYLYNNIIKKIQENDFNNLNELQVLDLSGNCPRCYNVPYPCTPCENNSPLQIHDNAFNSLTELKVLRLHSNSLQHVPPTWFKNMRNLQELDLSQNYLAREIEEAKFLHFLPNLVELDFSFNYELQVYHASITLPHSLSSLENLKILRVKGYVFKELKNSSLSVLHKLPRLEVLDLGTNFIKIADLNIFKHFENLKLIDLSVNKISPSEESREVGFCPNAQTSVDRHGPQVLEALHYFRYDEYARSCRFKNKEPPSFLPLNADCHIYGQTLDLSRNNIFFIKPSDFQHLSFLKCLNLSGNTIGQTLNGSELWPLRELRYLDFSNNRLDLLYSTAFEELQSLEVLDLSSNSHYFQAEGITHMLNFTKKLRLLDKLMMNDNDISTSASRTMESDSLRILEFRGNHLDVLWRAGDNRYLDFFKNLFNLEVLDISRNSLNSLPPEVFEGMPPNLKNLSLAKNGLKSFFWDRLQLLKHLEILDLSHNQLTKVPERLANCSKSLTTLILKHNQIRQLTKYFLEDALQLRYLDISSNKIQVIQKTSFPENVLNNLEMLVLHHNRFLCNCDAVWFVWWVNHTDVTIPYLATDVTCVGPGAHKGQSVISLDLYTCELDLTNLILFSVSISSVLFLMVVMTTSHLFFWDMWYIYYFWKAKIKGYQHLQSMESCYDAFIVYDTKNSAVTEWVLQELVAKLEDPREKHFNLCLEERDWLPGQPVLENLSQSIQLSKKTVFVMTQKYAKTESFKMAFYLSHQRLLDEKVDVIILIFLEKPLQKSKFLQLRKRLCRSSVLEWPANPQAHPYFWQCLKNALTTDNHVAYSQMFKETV
# Protocol: In vitro measurements of cytokine induction were performed using the mouse leukemic monocyte macrophage cell line, RAW264.7. […] BMDM were prepared from C57BL/6 and TLR7 deficient mice as described in Wu, C. C et al., “Immunotherapeutic activity of a conjugate of a Toll-like receptor 7 ligand”, Proc. Natl. Acad. Sci. USA, 104:3990 (2007).
# In general, RAW264.7 cells or BMDM were incubated with various concentrations of conjugates for 18 hours at 37° C., 5% CO2 and culture supernatants were collected. The levels of cytokines (IL-6, IL-12 or TNF-α in the supernatants were determined by ELISA (BD Biosciences Pharmingen, La Jolla, Calif.) (Cho, H. J et al., “Immunostimulatory DNA-based vaccines induce cytotoxic lymphocyte activity by a T-helper cell-independent mechanism” [see comments], Nat. Biotechnol., 18:509 (2000)), and the results presented in FIGS. 2A-D. Data are mean±SEM of triplicates and are representative of three independent experiments. Minimum detection levels of these cytokines were 15 pg/mL.
# TNFα levels were measured (see FIG. 2A) by incubating approximately 1×10^6/mL RAW 264.7 cells with the various conjugates or controls, as described above. IL-6 and IL-12 levels were measured (see FIGS. 2B-D) by incubating 0.5×10^6/mL BMDM with the various conjugates or controls, as described above. […]
# mice = conditions: cited from earlier work
order of TLR7 conjugate potency (TLR7 [1]),SMILES,"solubility, in words (Solubility)",serum IL-6 induction (C57BL/6 mice),serum TNFα induction (C57BL/6 mice; any point post injection),IL-12 and IL-6 induction in TLR7 deficient BMDM (TLR7 [2]),"potency of cytokine induction compared to unconjugated TLR7 (SM), in words (TLR7 [3])","course of serum cytokine levels after injection, in words (C57BL/6 mice)","anorexic effects and hypothermia in mice (mice; mouse, in vivo)",minimum dose that induced the anorectic reaction (mice; mucosal administration)
(4b)>(6)>(9)>/=SM>(8) and 4b>6>9>SM=8,"COCCOc1nc(N)c2nc(O)n(Cc3ccc(C(=O)NCCOCCOCCOCCOCCOCCOCCOCCOCCOCCOCCn4cc(CCC(=O)O)nn4)cc3)c2n1 [Compound 8, 3-(1-(1-(4-((6-amino-8-hydroxy-2-(2-methoxyethoxy)-9H-purin-9-yl)methyl)phenyl)-1-oxo-5,8,11,14,17,20,23,26,29,32-decaoxa-2-azatetratriacontan-34-yl)-1H-1,2,3-triazol-4-yl)propanoic acid]",solubility improves dramatically,only a low level of IL-6,no significant induction of TNFα,little or no IL-12 and IL-6,less potency compared to the unconjugated TLR7 (SM); also recorded: attenuated,–,–,–
–,"COCCOc1nc(N)c2nc(O)n(Cc3ccccc3)c2n1 [SM, 9-benzyl-8-hydroxy-2-(2-methoxyethoxy) adenine, reference compound]",insoluble in aqueous solution,–,–,little or no IL-12 and IL-6,–,declined rapidly after 2 hours,can induce anorexic effects and hypothermia,50 nmoles per mice
